# Patent US7235691B2, “Crystalline forms of modafinil” (priority 2000, dated 2007)
# Legend:
# [1] = Heating of crystalline forms, analysed by x-ray powder diffraction; type: physicochemical; conditions: for chemical decomposition on heating: heating/drying at about 100° C.; for crystalline form after heating in an oven: about 30 minutes at about 100° C.
# Description: X-ray diffraction data were acquired using a Philips powder X-ray diffractometer, Goniometer model 1050/70 at a scanning speed of 2° per minute, with a CUKα radiation of λ=1.5418 Å. The sample was gently ground and dusted over a zero background quartz plate to give a thin layer.
# Forms V and VI convert into modafinil Form I upon gentle heating to about 80° C. or above.
# Modafinil Form I may be separated from solvents conventionally by filtering or decanting and then drying.
# By Heating Modafinil Forms V or VI A small aliquot of Modafinil Forms V and VI are heated separately, for about 30 minutes, in an oven at about 100° C.
# [2] = type: physicochemical; conditions: for crystalline form conversion when suspended in water: time and temperature not stated; for crystalline form after suspension in distilled water: distilled water pH about 5.9, stirred about 24 hours at about 37° C.
Structure (SMILES),chemical decomposition on heating [1],crystalline form conversion when suspended in water [2],crystalline form after suspension in distilled water [2],crystalline form after heating in an oven [1],also measured
"NC(=O)C[S+]([O-])C(c1ccccc1)c1ccccc1 (racemic) [Form I, (±) 2-[(Diphenylmethyl)sulfinyl]acetamide, reference compound]",without undergoing significant chemical decomposition,,,,crystalline form after drying at elevated temperature ([1]; dried at a temperature as high as 100° C.): without converting to another crystalline or amorphous form
"NC(=O)C[S+]([O-])C(c1ccccc1)c1ccccc1 (racemic) [Form II, (±) 2-[(Diphenylmethyl)sulfinyl]acetamide]",,converted into Form I modafinil,,,
"NC(=O)C[S+]([O-])C(c1ccccc1)c1ccccc1 (racemic) [Form III, (±) 2-[(Diphenylmethyl)sulfinyl]acetamide]",,converts into modafinil Form II,determined to be modafinil Form II,,
"NC(=O)C[S+]([O-])C(c1ccccc1)c1ccccc1 (racemic) [Form IV, (±) 2-[(Diphenylmethyl)sulfinyl]acetamide]",,,determined to be modafinil Form I,,
"NC(=O)C[S+]([O-])C(c1ccccc1)c1ccccc1 (racemic) [Form V, (±) 2-[(Diphenylmethyl)sulfinyl]acetamide]",without significant decomposition,,,determined to be Form I,
"NC(=O)C[S+]([O-])C(c1ccccc1)c1ccccc1 (racemic) [Form VI, (±) 2-[(Diphenylmethyl)sulfinyl]acetamide]",without significant decomposition,,,determined to be Form I,
